Assays:
[1] = system: C57BL/KsJ-lepr db/lepr db mouse; assay: Glucose tolerance test in type 2 diabetes model mouse; type: in vivo; settings: oral, 0.01-3 mg/kg, 30 min before glucose 2 g/kg, FIG. 10
Procedure: C57BL/KsJ-lepr^db/lepr^db mouse (female, 8-week-old) (CLEA Japan; Tokyo, Japan) was used. The glucose tolerance test was performed using the mouse starved for 12 hr. Glucose (2 g/ml/kg body weight) was administered by gavage, and the time point thereof was taken as 0 h. diDCP-LA-PE (0.01, 0.1, 1, 3 mg/kg), insulin (0.75 U/kg) or brine was orally administered 30 min before administration of glucose. The blood (10 μl) was collected from the tail vein at the time points of 0, 30, 60, and 90 min, and each plasma sample which was labeled with p-aminobenzylethylester and prepared from the obtained blood was loaded on high performance liquid chromatography (HPLC) system (LC-10ATvp; Shimadzu Co., Kyoto, Japan). The glucose concentration was calculated from a peak area/concentration analytical curve prepared using the standard glucose solution.

[2] = system: STZ-treated C57BL/6J mouse; assay: Oral glucose tolerance test in streptozotocin-treated type 1 diabetes model mouse; type: in vivo; settings: oral 1 mg/kg, 4 consecutive days before OGTT and 30 min before glucose, FIG. 11
Procedure: C57BL/6J mouse (male, 8-week-old) (Japan SLC Inc.; Shizuoka, Japan) was used. Streptozotocin (STZ; 250 mg/kg) or saline as a control was injected intraperitoneally. After 4 days from the injection, an oral glucose tolerance test (OGTT) was performed.

[3] = system: 3T3L1-GLUT4myc adipocytes having a knocked-down insulin receptor; assay: GLUT4 trafficking in adipocytes with knocked-down insulin receptor; type: cell-based; settings: 1 μM, 20 min, absence of insulin, FIG. 12
Procedure: 3T3L1-GLUT4myc adipocytes were incubated in Krebs-Ringer-HEPES buffer [136 mM NaCl, 4.7 mM KCl, 1.25 mM CaCl2, 1.25 mM MgSO4 and 20 mM HEPES, pH 7.5] containing 0.2% (w/v) bovine serum albumin and added with 10 mM glucose at 37° C. for 1 hr. The cells were incubated in the presence or absence of insulin, phospholipid or a derivative thereof for 20 min. Then, the cells were homogenized by sonication in an ice-cooled mitochondria buffer containing 1% (v/v) protease inhibitor cocktail [210 mM mannitol, 70 mM sucrose, and 1 mM ethylenediaminetetraacetic acid (EDTA), 10 mM HEPES, pH 7.5]. Sequentially, the homogenate was centrifuged at 4° C. for 5 min at 3,000 rpm. The supernatant was further centrifuged at 4° C. for 15 min at 11,000 rpm. The recovered supernatant was ultracentrifuged at 4° C. for 60 min at 100,000 g, and separated into a cytoplasm fraction and a cellular membrane fraction. […] The protein concentration of each fraction was measured using BCA protein assay kit (Thermo Fisher Scientific, Waltham, Mass., USA). […] The immunoreactivity was detected using ECL kit (Invitrogen), and visualized using a chemical luminescence detection system (chemiluminescence detection system; GE Healthcare, Piscataway, N.J., USA). The signal density was measured using an image analysis software (Image Gauge software; GE Healthcare). […]

[4] = system: 3T3L1-GLUT4myc adipocytes; assay: Analysis of GLUT4 trafficking (cellular membrane transport of GLUT4); type: cell-based; settings: 20 min
Procedure: (§1) 3T3L1-GLUT4myc fibroblast strain expressing GLUT4myc was used. The cells are constructed by inserting human c-MYC epitope (14 amino acids) into the first ectodomain. The cells were cultured in Dulbecco's Modified Eagles Medium (DMEM) added with 10% (v/v) bovine serum, penicillin (final concentration, 100 U/ml) and streptomycin (final concentration, 0.1 mg/ml) in a humid environment under 5% CO2 and 95% air at 37° C. When the cells reached confluence (day 0), the medium was exchanged with DMEM added with 10% (v/v) fetal bovine serum (FBS), 1 μM dexamethasone, 0.5 mM 3-isobutyl-methyl-xanthine and 0.1 mg/ml insulin to allow for differentiation from fibroblast into adipocyte. The medium was exchanged with DMEM added with 10% (v/v) FBS on day 3, day 7 and day 11. On day 14, the cells were used for the experiment.
3T3L1-GLUT4myc adipocytes were incubated in Krebs-Ringer-HEPES buffer [136 mM NaCl, 4.7 mM KCl, 1.25 mM CaCl2, 1.25 mM MgSO4 and 20 mM HEPES, pH 7.5] containing 0.2% (w/v) bovine serum albumin and added with 10 mM glucose at 37° C. for 1 hr. The cells were incubated in the presence or absence of insulin, phospholipid or a derivative thereof for 20 min. Then, the cells were homogenized by sonication in an ice-cooled mitochondria buffer containing 1% (v/v) protease inhibitor cocktail [210 mM mannitol, 70 mM sucrose, and 1 mM ethylenediaminetetraacetic acid (EDTA), 10 mM HEPES, pH 7.5]. Sequentially, the homogenate was centrifuged at 4° C. for 5 min at 3,000 rpm. The supernatant was further centrifuged at 4° C. for 15 min at 11,000 rpm. […] The protein concentration of each fraction was measured using BCA protein assay kit (Thermo Fisher Scientific, Waltham, Mass., USA). […] The immunoreactivity was detected using ECL kit (Invitrogen), and visualized using a chemical luminescence detection system (chemiluminescence detection system; GE Healthcare, Piscataway, N.J., USA). The signal density was measured using an image analysis software (Image Gauge software; GE Healthcare).

[5] = system: Akt in 3T3L1-GLUT4myc adipocytes; assay: Akt activation, Western blotting of phospho-Akt (Thr308, Ser473); type: cell-based; settings: diDCP-LA-PE 1 μM, FIG. 4
Procedure: as §1, with “experiment. […]” for “experiment.”
For Western blotting, the protein was separated by SDS-polyacrylamide gel electrophoresis (SDS-PAGE), and transferred onto polyvinylidene difluoride membranes. […] The immunoreactivity was detected using ECL kit (GE Healthcare, Piscataway, N.J., USA), and visualized using a chemical luminescence detection system (chemiluminescence detection system; GE Healthcare). The protein concentration of each sample was measured using BCA protein assay kit (Thermo Fisher Scientific, Waltham, Mass., USA).

CCCCCC1CC1CC1CC1CCCCCCCC(=O)OC[C@H](COP(=O)(O)OCCN)OC(=O)CCCCCCCC1CC1CC1CC1CCCCC (stereo partly drawn) [diDCP-LA-PE, 1,2-o-bis-[8-{2-(2-pentyl-cyclopropylmethyl)-cyclopropyl}-octanoyl]-sn-glycero-3-phosphatidylethanolamine]
Decrease of blood glucose level [1]: decrease the blood glucose level in a dose-dependent manner
Suppression of increase in blood glucose [2]: significantly suppresses an increase in the blood glucose
Transfer of GLUT4 to cellular membrane, insulin receptor knock-down [3]: can promote transfer of GLUT4 to a cellular membrane in an insulin receptor independent manner
Promotion of cellular membrane transport of GLUT4 ([4]; 1 μM, FIG. 7): an action to promote cellular membrane transport of GLUT4
Concentration dependence of cellular membrane transport of GLUT4 ([4]; given concentrations, FIG. 8): promotes cellular membrane transport of GLUT4 in a concentration-dependent manner
Akt activation (phosphorylation of Thr308 and Ser473 relative to total Akt) [5]: has an action to activate Akt

Reference: US9512152B2, “Phospholipid compound containing unsaturated fatty acid derivative having cyclopropane ring” (NISHIZAKI BIOINFORMATION RESEARCH INSTITUTE, priority 2013, dated 2016)
